Values quoted from earlier work, collected in patent publication US20020192834A1, “Analysis of caffeine” (priority 2001, published 2002).

Conditions: after consuming caffeine in coffee; background statement

Question: For `Cn1c(=O)c2c(ncn2C)n(C)c1=O` [caffeine, trimethylxanthine], which half-life of caffeine is on record?
Answer: The half-life of caffeine was “about 6 hours”.
